Among the data in ChEMBL document CHEMBL1146790, “Structural variations in keto-glutamines for improved inhibition against hepatitis A virus 3C proteinase” (Bioorg Med Chem Lett, 2004) are inhibition values, retold here.

The test system of the experiment is 3C proteinase (Hepatitis A virus). As to the kind of experiment: Reversible inhibitory activity against Protease at a concentration 100 uM. To be noted: Hepatovirus A.

Each structure is given as a SMILES string.

A word on the inhibition: it is how much of the control response was suppressed. As to `COC(=O)c1nnn(CC(=O)[C@H](CCC(=O)N(C)C)NC(=O)[C@H](C)NC(=O)[C@H](C)NC(=O)[C@H](CC(C)C)NC(C)=O)c1C(=O)OC`, the inhibition was found to be 9%.

Compound `COC(=O)c1nnn(CC(=O)[C@H](C[C@@H]2CCNC2=O)NC(=O)[C@H](C)NC(=O)[C@H](C)NC(=O)[C@H](CC(C)C)NC(C)=O)c1C(=O)OC` had an inhibition of 14%.

`CC(=O)N[C@@H](CC(C)C)C(=O)N[C@@H](C)C(=O)N[C@@H](C)C(=O)N[C@@H](CCC(=O)N(C)C)C(=O)Cn1nnc(C(=O)O)c1C(=O)O` yielded an inhibition of 1%.
